# pIC50: −log10 of the molar value.
# How the values were obtained:
# K562-NR cells [1] = assay: cells; settings: Homo sapiens, read-out: Growth Inhibition IC50 (95% CI)
# K562-DR cells = assay: cells; settings: Homo sapiens, read-out: Growth Inhibition IC50 (95% CI)
# K562 cells = settings: parental K562 cells; 10 nM dasatinib; Fig 6C
# K562-NR cells [2] = settings: cross-resistance, relative to parental
# [3] = test system: chronic myeloid leukemia (CML); settings: cited from earlier work
pIC50 (K562-NR cells [1]),pIC50 (K562-DR cells),SMILES,cell growth at the level consistent with resistant culture conditions (K562 cells),cell growth inhibition (in words) (K562-NR cells [2]),response rate [3] [%]
6.14,7.60,Cc1cn(-c2cc(NC(=O)c3ccc(C)c(Nc4nccc(-c5cccnc5)n4)c3)cc(C(F)(F)F)c2)cn1 [nilotinib],–,–,–
8.44,–,Cc1nc(Nc2ncc(C(=O)Nc3c(C)cccc3Cl)s2)cc(N2CCN(CCO)CC2)n1 [dasatinib],lack of growth,somewhat less potent,–
–,–,Cc1ccc(NC(=O)c2ccc(CN3CCN(C)CC3)cc2)cc1Nc1nccc(-c2cccnc2)n1 [imatinib],–,unable to inhibit growth at any of the concentrations tested,80

# Reference: article PMC5012566, “A Cell-Based Assay for Measuring Endogenous BcrAbl Kinase Activity and Inhibitor Resistance” (PLoS ONE, 2016)
